Experimental data as given in PMC5504357, “Antifungal Potential of Copper(II), Manganese(II) and Silver(I) 1,10-Phenanthroline Chelates Against Multidrug-Resistant Fungal Species Forming the Candida haemulonii Complex: Impact on the Planktonic and Biofilm Lifestyles” (Frontiers in Microbiology, 2017).

Assays:
Candida duobushaemulonii [1] = test: Planktonic growth, broth microdilution (CLSI M27-A3), MIC; assay type: cell-based; conditions: for GM-MIC: geometric mean of three C. duobushaemulonii isolates; for MIC: planktonic, 48 h, 37°C
In short: (§1)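 Three clinical isolates per species (nail, blood, urine origin), grown in Sabouraud-dextrose 48 h at 37°C, were tested by CLSI M27-A3 broth microdilution in RPMI 1640 over 0.0625-32 mg/L. After 48 h at 37°C, MIC was the lowest concentration with no visible growth; the across-isolate value is a geometric mean MIC.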

[2] = system: Candida haemulonii var. vulnera; test: as above; assay type: cell-based; conditions: for GM-MIC: geometric mean of three C. haemulonii var. vulnera isolates; for MIC: planktonic, 48 h, 37°C
In short: as §1

Candida haemulonii [3] = test: as above; assay type: cell-based; conditions: for GM-MIC: geometric mean of three C. haemulonii isolates; for MIC: planktonic, 48 h, 37°C
In short: as §1

A549 cells = test: Mammalian cell toxicity (MTT assay) and selectivity index; assay type: cell-based, Human; conditions: MTT, 48 h incubation
In short: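 A549 cells were exposed to compounds (0.0313–512 μg/mL) in DMEM for 48 h at 37 °C, 5% CO2. Viability was measured by MTT (3 h, dark), with formazan dissolved in DMSO and read at 450 nm. CC50 was derived, and SI calculated as A549 CC50 divided by C. haemulonii complex GM-MIC.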

Candida duobushaemulonii [4] = test: Biofilm-growing cells, XTT assay, bMIC; assay type: cell-based; conditions: for GM-bMIC: geometric mean, C. duobushaemulonii isolates; for bMIC: mature biofilm, 48 h, 50% inhibition of metabolic activity
In short: (§2)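 Biofilms formed from 10^6 yeast cells in Sabouraud-dextrose broth, 48 h at 37 °C, then washed and exposed to compounds for a further 48 h at 37 °C. Metabolic activity read by XTT reduction; bMIC is the lowest concentration giving 50% inhibition versus compound-free wells.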

[5] = system: Candida haemulonii var. vulnera; test: Biofilm-growing cells, XTT assay, bMIC; assay type: cell-based; conditions: for GM-bMIC: geometric mean, C. haemulonii var. vulnera isolates; for bMIC: mature biofilm, 48 h, 50% inhibition of metabolic activity
In short: as §2

Candida haemulonii [6] = test: Biofilm-growing cells, XTT assay, bMIC; assay type: cell-based; conditions: for GM-bMIC: geometric mean, C. haemulonii isolates, values marked * do not include LIP Ch4 (>512); for bMIC: mature biofilm, 48 h, 50% inhibition of metabolic activity
In short: as §2

| Compound | GM-MIC (Candida duobushaemulonii [1]) [mg/L] | MIC (Candida duobushaemulonii [1]; isolate LIP Ch1) [mg/L] | MIC (Candida duobushaemulonii [1]; isolate LIP Ch6) [mg/L] | MIC (Candida duobushaemulonii [1]; isolate LIP Ch8) [mg/L] | GM-MIC [2] [mg/L] | MIC ([2]; isolate LIP Ch5) [mg/L] | MIC ([2]; isolate LIP Ch9) [mg/L] | MIC ([2]; isolate LIP Ch11) [mg/L] | GM-MIC (Candida haemulonii [3]) [mg/L] | MIC (Candida haemulonii [3]; isolate LIP Ch4) [mg/L] | MIC (Candida haemulonii [3]; isolate LIP Ch7) [mg/L] | MIC (Candida haemulonii [3]; isolate LIP Ch12) [mg/L] | A549 (CC50) (A549 cells) [mg/L] | GM-bMIC (Candida duobushaemulonii [4]) [mg/L] | bMIC (Candida duobushaemulonii [4]; isolate LIP Ch1) [mg/L] | bMIC (Candida duobushaemulonii [4]; isolate LIP Ch6) [mg/L] | bMIC (Candida duobushaemulonii [4]; isolate LIP Ch8) [mg/L] | GM-bMIC [5] [mg/L] | bMIC ([5]; isolate LIP Ch5) [mg/L] | bMIC ([5]; isolate LIP Ch9) [mg/L] | other results |
| --- | --- | --- | --- | --- | --- | --- | --- | --- | --- | --- | --- | --- | --- | --- | --- | --- | --- | --- | --- | --- | --- |
| CCO.O=C([O-])COCCOCCOCC(=O)[O-].[Ag+].[Ag+].c1cnc2c(c1)ccc1cccnc12.c1cnc2c(c1)ccc1cccnc12.c1cnc2c(c1)ccc1cccnc12.c1cnc2c(c1)ccc1cccnc12 [compound 16, [Ag2(3,6,9-tdda)(phen)4].EtOH] | 1.26 | 2 | 1 | 1 | 0.79 | 1 | 0.5 | 1 | 1 | 1 | 1 | 1 | 2.21 | 6.35 | 4 | 8 | 8 | 2.52 | 4 | 1 | bMIC ([5]; isolate LIP Ch13): 4 mg/L; GM-bMIC (Candida haemulonii [6]): 16 mg/L; bMIC (Candida haemulonii [6]; isolate LIP Ch4): 32 mg/L; bMIC (Candida haemulonii [6]; isolate LIP Ch7): 16 mg/L; bMIC (Candida haemulonii [6]; isolate LIP Ch14): 8 mg/L |
| {[Cu(3,6,9-tdda)(phen)2].3H2O.EtOH}n [compound 7] | 2 | 2 | 2 | 2 | 2.52 | 2 | 2 | 4 | 3.17 | 4 | 4 | 2 | 1.06 | 8 | 16 | 4 | 8 | 3.17 | 4 | 4 | bMIC ([5]; isolate LIP Ch13): 2 mg/L; GM-bMIC (Candida haemulonii [6]): 8 mg/L; bMIC (Candida haemulonii [6]; isolate LIP Ch4): 32 mg/L; bMIC (Candida haemulonii [6]; isolate LIP Ch7): 4 mg/L; bMIC (Candida haemulonii [6]; isolate LIP Ch14): 4 mg/L |
